# According to patent publication US10959995B2, “Methods of acute restoration of vascular compliance” (Alumend, LLC, priority 2013, dated 2021):
# “Also recorded” adds a separate entry of the source.
# Experiments:
# artery = assay: Arterial compression with other photoactivated material; conditions: FIG. 13
# Description: Singlet oxygen generating species, such as Rose Bengal, riboflavin, and methylene blue were tested to determine if they would be effective at arterial compression.
# [1] = Storage stability of naphthalimide dimer (solution and powder); type: physicochemical
# Excerpt: A preparative HPLC approach was used to isolate and specifically purify the compound of formula (V) dimer from the compound of formula (V) naphthalimide product produced from the ethanol crystallization. The HPLC method used was based on the purity method outlined above; however, method modifications were made to replace acetonitrile with ethanol and TFA with acetic acid in the mobile phase. The preparative separation utilized a C18 column (X-bridge, 10 μm, 19×250 mm, Waters). The mobile phase consisted of mobile phase A, 0.1% acetic acid (aq), and mobile phase B, 9:1 ethanol:water (0.1% v/v acetic acid). The column was pre-equilibrated at a starting mobile phase of 95% A:5% B for 20 minutes, at the start of the gradient was a 2 minute hold followed by a linear gradient to 90% B at 40 minutes and a 10 minute hold. An injection volume of 8.5 mL (12 mg/mL purified compound of formula (V)) and flow rate of 8.5 mL/minute were used as well as a detector wavelength of 440 nm. The compound of formula (V) fractions were collected and analyzed using the analytical purity method presented above. Fractions meeting a minimum purity criterion were combined and the solvent driven off by rotovapping the solution to dryness. […] Finally the product was quantitatively transferred from the round bottom flask to a freeze drying flask by dissolving the product in a minimal amount of deionized water. […]
# [2] = system: hard (calcified) and soft plaque in diseased arteries; assay: Plaque penetration: diseased arteries soaked with plaque softening composition, light activated, visual and histological examination; design: species or system human
# Description: Diseased arteries were obtained from limb amputations (leg) due to advanced Periperal Arterial Disease (PAD) from patients at Avera McKennan hospital. The received arteries were evaluated and chosen such that the diseased section was of reasonable size to accommodate the treatment catheter balloon length being used. The catheter balloon diameter used was also matched to the diameter of the artery and capable of achieving a 1:1.25 (ratio of artery diameter to balloon diameter) overstretch. The artery was laid in a petri dish and an angioplasty balloon was inserted and inflated for 60 seconds to impart the desired overstretch. While the angioplasty balloon was inflated a permanent marker was used to define the treatment zone (where the overstretch was imparted by the balloon) on the outer surface of the artery. The angioplasty balloon was deflated and removed. The inner lumen of the diseased artery was exposed to a plaque softening composition comprising a compound of formula (V) naphthalimide formulation (2 mg/mL in phosphate buffered saline, pH=7.4) for a period of 5 minutes. For the purpose of filling the artery, one end was clamped, the artery was held upright and a syringe was used to dispense the naphthalimide solution until the inner lumen was filled. The open end of the artery was then clamped and the soaking period of 5 minutes commenced. […] Arteries were cut open lengthwise and the treated section was evaluated by visual examination.
# Prior to cutting the artery for visual examination samples from the treated and untreated sections were collected and preserved for histological examination. […] After this time, samples were stored in a −80° C. freezer until ready for further analysis. […] The crystalline nature of hard plaque is readily visible without staining. Under this magnification the crystalline structure of the calcific plaque was readily visible, as shown in FIG. 8 the dark area between the two lighter colored areas of the media. […]
# [3] = system: hard and soft plaque from common and lower femoral artery; assay: Tissue immersion: plaque hardness by manual manipulation with forceps; design: species or system human; conditions: PBS pH 7.4
# Excerpt: A sample of human tissue from the common and lower femoral artery was received. It was stored in saline and refrigerated until use. Based upon visual and tactile observations, the arteries were approximately 7-8 mm in diameter and contained evidence of both hard and soft plaque. The soft plaque has a yellow fatty appearance that is distinguishable from the vessel wall. The hard plaque presents itself as hard pieces of material that can be pulled (with a forceps) from the soft plaque. Sections of the artery suitable for catheter work were segregated and stored in phosphate buffered saline (PBS), pH=7.4. From the remaining arterial sections, pieces of tissue containing both hard and soft plaque were removed. These pieces were either placed in a solution of PBS (pH=7.4), or dimeric naphthalimide, such as a compound of formula (V) (which is in PBS, pH=7.4). Prior to immersion in either solution the relative hardness of the plaque was evaluated via manual manipulation with a forcep. After a 5 minute soak in solution (typical exposure time), no difference in the samples soaked in PBS was noticed (control). […] The samples were then left in their respective solutions for an additional 90 minutes.
# artery tissue = assay: Angioplasty with plaque-softening composition and photoactivation: fissure observation; design: species or system human
# Description: The tissue was an artery approximately 7.4 mm in diameter. An Ultra-thin SDS 8 mm×30 mm catheter was used to dilate the artery to 7.55 mm (approximately a 2% overstretch). A fissure or a possible dissection running down the length of the tissue sample was observed.
# A section (6.5 cm in length) of artery was exposed to the composition for 5 minutes. An 80 mm catheter was used to impart a 2% overstretch to the artery. The angioplasty was followed by photoactivation at 1800 mW for 60 seconds using the same 80 mm catheter with a 60 mm light fiber centered in the catheter.
# A catheter with an 80 mm treatment zone balloon was used however the photoactivating light fiber was only 60 mm in length. During activation it was noted that the light fiber was shifted distally in the catheter. This meant that the distal end of the artery was receiving photoactivation, however, the proximal end received little or no light. A fissure down the length of the artery was again observed.
# [4] = 2 mg/mL in PBS pH 7.4, 5 minute soak, 447 nm light activation 60 seconds
smiles,measurement,setting,value
O=C([O-])c1c(Cl)c(Cl)c(Cl)c(Cl)c1-c1c2cc(I)c(=O)c(I)c-2oc2c(I)c([O-])c(I)cc12.[Na+].[Na+] [Rose Bengal],efficacy at arterial compression,artery,No efficacy
NCCOCCOCCNc1ccc2c3c(cccc13)C(=O)N(CCOCCOCCN1C(=O)c3cccc4c(NCCOCCOCCN)ccc(c34)C1=O)C2=O [compound of formula (V)],degradation of dimer in powder form,[1]; periods exceeding one year of storage in a dessicator at room temperature,no evidence of degradation
same,stability of dimer solution,"[1]; solution at pH 7.4, periods up to one year",excellent stability
same,tacking of intimal flaps,[2]; [4],definitive observation of tacking of intimal flaps
same,visual/tactile observation of plaque in treated region,[2]; [4],apparent softened plaque; also recorded: looked and felt softer and creamier
same,calcium crystals in treated sections under microscope,[2]; treated vs untreated sections of artery,less evidence of calcium crystals
same,plaque hardness after soak,[3]; 5 minute soak in solution,slight softening
same,plaque hardness after soak,[3]; additional 90 minutes in solution,significantly softer and more pliable
same,repair of fissure,"artery tissue; angioplasty then composition, distal region with adequate photoactivation",there appeared to be a seam indicating repair
same,fissure in opened artery,"artery tissue; composition 5 minutes, then angioplasty 2% overstretch, photoactivation 1800 mW 60 seconds",no fissure observed
CN(C)c1ccc2nc3ccc(=[N+](C)C)cc-3sc2c1 [methylene blue],efficacy at arterial compression,artery,No efficacy
Cc1cc2nc3c(=O)[nH]c(=O)nc-3n(C[C@H](O)[C@H](O)[C@H](O)CO)c2cc1C [riboflavin],efficacy at arterial compression,artery,No efficacy
